Data on one compound can be found in patent US5214034A, “Catechol derivatives, and preventive and remedial preparations for regressive disorders in the central nervous system containing the same” (priority 1986, dated 1993).

Each structure is given as a SMILES string. Where two headings read alike, the source gives them in different places.

The test system of series [1] is production and secretion of NGF on L-M cells. Put plainly: Promoting action for the production and secretion of NGF on L-M cells of mouse (ELISA). In kind it is cell-based. The note with it: Mus musculus, 24 h, read-out: Ratio of NGF increase. An outline of the steps:
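Mouse L-M cells were grown 3 days at 37° C to confluence (about 10^6 cells/well), then switched to Medium 199 with 0.5% BSA containing test derivative at prescribed concentrations. NGF production and secretion were measured by ELISA following Furukawa et al.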

A further series is described as follows: Acute toxicity (LD50). To be noted: mouse, in vivo. As for the experimental part:
The catechol derivative having normal type saturated lower alkyl groups on the ring was administered by intravenous injection (i.v.), intraperitoneal injection (i.p.) or oral route (p.o.) to male ddy mice of 4-week old. The LD50 values (mg/kg) were measured by an ordinary method.

The test system of series [2] is production and secretion of NGF in brain astroglial cells. Nature of the series: Promoting activity for the production and secretion of NGF in brain astroglial cells of mouse (ELISA). The note with it: 24 h.

As for `CCCc1ccc(O)c(O)c1` [R = Two H, R1 = H, R2 = n-Propyl, 4-n-propylcatechol], the fold induction at 30 µM in series [1] stood at 10.1 ± 1.14. Further, the fold induction at 100 µM is 17.1 ± 2.7 in series [1] and 68.4 ± 3.24 in series [2] (read-out: Ratio of NGF increase, Table 3, 0.10 mM, 24 hours, mean ± SE of four determinations). Further, the LD50 is more than 500 mg/kg in “Acute toxicity (LD50)” (ip, intraperitoneal injection, read-out: LD50 i.p.); more than 150 mg/kg in “Acute toxicity (LD50)” (intravenous injection, read-out: LD50 i.v.); more than 1500 mg/kg in “Acute toxicity (LD50)” (oral route, read-out: LD50 p.o.). Further, the fold induction at 250 µM in series [2] (read-out: Ratio of NGF increase, Table 3, 0.25 mM, 24 hours, mean ± SE of four determinations) is 100 ± 11.2.

The LD50 is the dose at which mortality reaches 50%.
